Calls of active or inactive are those of the source. The rule behind the calls is not given here.
What was measured:
RAW264.7 [1] = assay: Inhibition of NF-kappaB in mouse RAW264.7 cells assessed as LPS-induced iNOS expression level at 70 uM pretreated for 6 hrs followed by LPS stimulation measured after 24 hrs by Western blot analysis (reference value: 5.69); type: cell-based
RAW264.7 [2] = assay: Inhibition of NF-kappaB in mouse RAW264.7 cells assessed as reduction in LPS-induced IL-6 mRNA level at 50 to 100 uM by qRT-PCR analysis; type: cell-based
RAW264.7 [3] = assay: Effect on beta-actin expression level in LPS-induced mouse RAW264.7 cells at 100 uM pretreated for 6 hrs followed by LPS stimulation measured after 2 hrs by Western blot analysis (reference value: 0.99); type: ADME, cell-based; details: raw264.7, 2 h
RAW264.7 [4] = assay: Cytotoxicity against mouse RAW264.7 cells assessed as reduction in cell viability at 50 to 100 uM after 48 hrs by WST-1 assay; type: cell-based; details: raw264.7, 48 h
RAW264.7 [5] = assay: Effect on tubulin expression level in LPS-induced mouse RAW264.7 cells at 50 uM pretreated for 6 hrs followed by LPS stimulation measured after 2 hrs by Western blot analysis (reference value: 1.02); type: ADME, cell-based; details: raw264.7, 2 h
Mus musculus [6] = species: Mus musculus; assay: Effect on LPS-induced I-kappaB phosphorylation at 75 uM pretreated for 6 hrs followed by LPS stimulation measured after 2 hrs by Western blot analysis (reference value: 2.22)
RAW264.7 [7] = assay: Effect on beta-actin expression level in LPS-induced mouse RAW264.7 cells at 75 uM pretreated for 6 hrs followed by LPS stimulation measured after 24 hrs by Western blot analysis (reference value: 0.95); type: ADME, cell-based; details: raw264.7, 24 h
RAW264.7 [8] = assay: Inhibition of NF-kappaB in mouse RAW264.7 cells assessed as reduction in LPS-induced TNFalpha mRNA level at 50 to 100 uM by qRT-PCR analysis; type: cell-based
RAW264.7 [9] = assay: Inhibition of NF-kappaB in mouse RAW264.7 cells assessed as LPS-induced cytosolic NF-kappaB level at 50 uM pretreated for 6 hrs followed by LPS stimulation measured after 2 hrs by Western blot analysis (reference value: 0.13); type: cell-based
RAW264.7 [10] = assay: Effect on beta-actin expression level in LPS-induced mouse RAW264.7 cells at 100 uM pretreated for 6 hrs followed by LPS stimulation measured after 24 hrs by Western blot analysis (reference value: 0.95); type: ADME, cell-based; details: raw264.7, 24 h
RAW264.7 [11] = assay: Inhibition of NF-kappaB in mouse RAW264.7 cells assessed as LPS-induced iNOS expression level at 100 uM pretreated for 6 hrs followed by LPS stimulation measured after 24 hrs by Western blot analysis (reference value: 5.69); type: cell-based
RAW264.7 [12] = assay: Effect on beta-actin expression level in LPS-induced mouse RAW264.7 cells at 75 uM pretreated for 6 hrs followed by LPS stimulation measured after 2 hrs by Western blot analysis (reference value: 0.99); type: ADME, cell-based; details: raw264.7, 2 h
RAW264.7 [13] = assay: Inhibition of NF-kappaB in mouse RAW264.7 cells assessed as LPS-induced nuclear NF-kappaB level at 75 uM pretreated for 6 hrs followed by LPS stimulation measured after 2 hrs by Western blot analysis (reference value: 6.77); type: cell-based
RAW264.7 [14] = assay: Antiinflammatory activity against mouse RAW264.7 cells assessed as inhibition of LPS-induced TNFalpha production at 100 uM pretreated for 6 hrs followed by LPS stimulation measured after 24 hrs by ELISA; type: functional, cell-based
RAW264.7 [15] = assay: Inhibition of NF-kappaB in mouse RAW264.7 cells assessed as LPS-induced nuclear NF-kappaB level at 50 uM pretreated for 6 hrs followed by LPS stimulation measured after 2 hrs by Western blot analysis (reference value: 6.77); type: cell-based
RAW264.7 [16] = assay: Effect on beta-actin expression level in LPS-induced mouse RAW264.7 cells at 50 uM pretreated for 6 hrs followed by LPS stimulation measured after 24 hrs by Western blot analysis (reference value: 0.95); type: ADME, cell-based; details: raw264.7, 24 h
RAW264.7 [17] = assay: Antiinflammatory activity against mouse RAW264.7 cells assessed as inhibition of LPS-induced IL-1beta production at 50 to 100 uM pretreated for 6 hrs followed by LPS stimulation measured after 24 hrs by ELISA; type: functional, cell-based
RAW264.7 [18] = assay: Inhibition of NF-kappaB in mouse RAW264.7 cells assessed as reduction in LPS-induced iNOS expression level pretreated for 6 hrs followed by LPS stimulation measured after 24 hrs by Western blot analysis; type: cell-based
Mus musculus [19] = species: Mus musculus; assay: Effect on LPS-induced I-kappaB phosphorylation at 100 uM pretreated for 6 hrs followed by LPS stimulation measured after 2 hrs by Western blot analysis (reference value: 2.22)
Mus musculus [20] = species: Mus musculus; assay: Effect on LPS-induced I-kappaB phosphorylation at 50 uM pretreated for 6 hrs followed by LPS stimulation measured after 2 hrs by Western blot analysis (reference value: 2.22)
RAW264.7 [21] = assay: Effect on LPS-induced I-kappaB level in mouse RAW264.7 cells at 50 uM pretreated for 6 hrs followed by LPS stimulation measured after 2 hrs by Western blot analysis (reference value: 0.44); type: cell-based
RAW264.7 [22] = assay: Effect on LPS-induced I-kappaB level in mouse RAW264.7 cells at 100 uM pretreated for 6 hrs followed by LPS stimulation measured after 2 hrs by Western blot analysis (reference value: 0.44); type: cell-based
RAW264.7 [23] = assay: Inhibition of NF-kappaB in mouse RAW264.7 cells assessed as reduction in LPS-induced COX-2 mRNA level at 50 to 100 uM by qRT-PCR analysis; type: cell-based
RAW264.7 [24] = assay: Antiinflammatory activity against mouse RAW264.7 cells assessed as inhibition of LPS-induced intracellular ROS production at 50 to 100 uM pretreated for 12 hrs followed by LPS stimulation measured after 24 hrs by DCF-DA probe based flow cytometry; type: functional, cell-based
RAW264.7 [25] = assay: Inhibition of NF-kappaB in mouse RAW264.7 cells assessed as LPS-induced COX-2 expression level at 100 uM pretreated for 6 hrs followed by LPS stimulation measured after 24 hrs by Western blot analysis (reference value: 2.02); type: cell-based
RAW264.7 [26] = assay: Effect on tubulin expression level in LPS-induced mouse RAW264.7 cells at 100 uM pretreated for 6 hrs followed by LPS stimulation measured after 2 hrs by Western blot analysis (reference value: 1.02); type: ADME, cell-based; details: raw264.7, 2 h
RAW264.7 [27] = assay: Inhibition of NF-kappaB in mouse RAW264.7 cells assessed as LPS-induced COX-2 expression level at 50 uM pretreated for 6 hrs followed by LPS stimulation measured after 24 hrs by Western blot analysis (reference value: 2.02); type: cell-based
RAW264.7 [28] = assay: Inhibition of NF-kappaB nuclear localization in LPS-induced mouse RAW264.7 cells at 50 to 100 uM pretreated for 6 hrs followed by LPS stimulation measured after 2 hrs by DAPI/FITC staining based laser scanning confocal microscopy; type: cell-based
RAW264.7 [29] = assay: Inhibition of NF-kappaB in mouse RAW264.7 cells assessed as LPS-induced nuclear NF-kappaB level at 100 uM pretreated for 6 hrs followed by LPS stimulation measured after 2 hrs by Western blot analysis (reference value: 6.77); type: cell-based
RAW264.7 [30] = assay: Inhibition of LPS-induced I-kappaB phosphorylation in mouse RAW264.7 cells pretreated for 6 hrs followed by LPS stimulation measured after 2 hrs by Western blot analysis; type: cell-based
RAW264.7 [31] = assay: Inhibition of NF-kappaB in mouse RAW264.7 cells assessed as LPS-induced cytosolic NF-kappaB level at 75 uM pretreated for 6 hrs followed by LPS stimulation measured after 2 hrs by Western blot analysis (reference value: 0.13); type: cell-based
RAW264.7 [32] = assay: Antiinflammatory activity against mouse RAW264.7 cells assessed as inhibition of LPS-induced IL-6 production at 50 to 100 uM pretreated for 6 hrs followed by LPS stimulation measured after 24 hrs by ELISA; type: functional, cell-based
RAW264.7 [33] = assay: Inhibition of NF-kappaB in mouse RAW264.7 cells assessed as reduction in LPS-induced IL-1beta mRNA level at 50 to 100 uM by qRT-PCR analysis; type: cell-based
RAW264.7 [34] = assay: Inhibition of NF-kappaB in mouse RAW264.7 cells assessed as LPS-induced COX-2 expression level at 75 uM pretreated for 6 hrs followed by LPS stimulation measured after 24 hrs by Western blot analysis (reference value: 2.02); type: cell-based
RAW264.7 [35] = assay: Effect on beta-actin expression level in LPS-induced mouse RAW264.7 cells at 50 uM pretreated for 6 hrs followed by LPS stimulation measured after 2 hrs by Western blot analysis (reference value: 0.99); type: ADME, cell-based; details: raw264.7, 2 h
RAW264.7 [36] = assay: Inhibition of NF-kappaB in mouse RAW264.7 cells assessed as LPS-induced iNOS expression level at 50 uM pretreated for 6 hrs followed by LPS stimulation measured after 24 hrs by Western blot analysis (reference value: 5.69); type: cell-based
RAW264.7 [37] = assay: Effect on LPS-induced I-kappaB level in mouse RAW264.7 cells at 75 uM pretreated for 6 hrs followed by LPS stimulation measured after 2 hrs by Western blot analysis (reference value: 0.44); type: cell-based
RAW264.7 [38] = assay: Effect on tubulin expression level in LPS-induced mouse RAW264.7 cells at 75 uM pretreated for 6 hrs followed by LPS stimulation measured after 2 hrs by Western blot analysis (reference value: 1.02); type: ADME, cell-based; details: raw264.7, 2 h
RAW264.7 [39] = assay: Inhibition of NF-kappaB in mouse RAW264.7 cells assessed as reduction in LPS-induced iNOS mRNA level at 50 to 100 uM by qRT-PCR analysis; type: cell-based
RAW264.7 [40] = assay: Antiinflammatory activity against mouse RAW264.7 cells assessed as inhibition of LPS-induced nitrite production at 100 uM pretreated for 6 hrs followed by LPS stimulation measured after 24 hrs by […]; type: functional, cell-based
RAW264.7 [41] = assay: Inhibition of NF-kappaB in mouse RAW264.7 cells assessed as LPS-induced cytosolic NF-kappaB level at 100 uM pretreated for 6 hrs followed by LPS stimulation measured after 2 hrs by Western blot analysis (reference value: 0.13); type: cell-based
RAW264.7 [42] = assay: Antiinflammatory activity against mouse RAW264.7 cells assessed as inhibition of LPS-induced nitrite production at 20 uM pretreated for 6 hrs followed by LPS stimulation measured after 24 hrs by […]; type: functional, cell-based
RAW264.7 [43] = assay: Antiinflammatory activity against mouse RAW264.7 cells assessed as inhibition of LPS-induced IL-6 production at 20 uM pretreated for 6 hrs followed by LPS stimulation measured after 24 hrs by ELISA; type: functional, cell-based
RAW264.7 [44] = assay: Antiinflammatory activity against mouse RAW264.7 cells assessed as inhibition of LPS-induced TNFalpha production at 20 uM pretreated for 6 hrs followed by LPS stimulation measured after 24 hrs by ELISA; type: functional, cell-based
RAW264.7 [45] = assay: Antiinflammatory activity against mouse RAW264.7 cells assessed as inhibition of LPS-induced IL-1beta production at 20 uM pretreated for 6 hrs followed by LPS stimulation measured after 24 hrs by ELISA; type: functional, cell-based

For `COc1cc2ccc(=O)[nH]c2cc1O`, the fold change (FC) (RAW264.7 [1]) was 1.98, the inhibition (RAW264.7 [2]) was “Active” and the “fold change (FC)” value (RAW264.7 [3]) was 1. For the same compound, the Activity (RAW264.7 [4]) was “Non-Toxic”, the “fold change (FC)” value (RAW264.7 [5]) was 0.93 and the fold change (FC) (Mus musculus [6]) was 1.11. The “fold change (FC)” value (RAW264.7 [7]) was 1, the inhibition (RAW264.7 [8]) was “Active” and the fold change (FC) (RAW264.7 [9]) was 0.3. The “fold change (FC)” value (RAW264.7 [10]) was 0.96, the fold change (FC) (RAW264.7 [11]) was 1.04 and the “fold change (FC)” value (RAW264.7 [12]) was 0.96. For the same compound, the fold change (FC) (RAW264.7 [13]) was 3.89, the inhibition (RAW264.7 [14]) was “Active” and the fold change (FC) (RAW264.7 [15]) was 5.25. For the same compound, the “fold change (FC)” value (RAW264.7 [16]) was 0.95, the inhibition (RAW264.7 [17]) was “Active” and the inhibition (RAW264.7 [18]) was “Dose-dependent effect”. For the same compound, the fold change (FC) (Mus musculus [19]) was 1.05, the fold change (FC) (Mus musculus [20]) was 1.86 and the fold change (FC) (RAW264.7 [21]) was 0.64. The fold change (FC) (RAW264.7 [22]) was 0.99, the inhibition (RAW264.7 [23]) was “Active” and the inhibition (RAW264.7 [24]) was “Active”. For the same compound, the fold change (FC) (RAW264.7 [25]) was 1.02, the “fold change (FC)” value (RAW264.7 [26]) was 1.01 and the fold change (FC) (RAW264.7 [27]) was 1.72. The inhibition (RAW264.7 [28]) was “Active”, the fold change (FC) (RAW264.7 [29]) was 1.56 and the inhibition (RAW264.7 [30]) was “Dose-dependent effect”. For the same compound, the fold change (FC) (RAW264.7 [31]) was 0.91, the inhibition (RAW264.7 [32]) was “Active” and the inhibition (RAW264.7 [33]) was “Active”. The fold change (FC) (RAW264.7 [34]) was 1.29, the “fold change (FC)” value (RAW264.7 [35]) was 0.94 and the fold change (FC) (RAW264.7 [36]) was 3.4. The fold change (FC) (RAW264.7 [37]) was 0.85, the “fold change (FC)” value (RAW264.7 [38]) was 0.96 and the inhibition (RAW264.7 [39]) was “Active”. For the same compound, the inhibition (RAW264.7 [40]) was “Active” and the fold change (FC) (RAW264.7 [41]) was 0.97.

With `C[C@@H]1C[C@H]2[C@@H]3CCC4=CC(=O)C=C[C@]4(C)[C@@]3(F)[C@@H](O)C[C@]2(C)[C@@]1(O)C(=O)CO` the inhibition (RAW264.7 [42]) was “Active”, the inhibition (RAW264.7 [43]) was “Active” and the inhibition (RAW264.7 [44]) was “Active”. The inhibition (RAW264.7 [45]) was “Active”.
